According to patent publication US7129078B2, “DNA encoding androgen receptor fragment” (University of North Carolina at Chapel Hill, priority 1988, dated 2006):

Molecular target: T1, steroid-binding domain of hAR (human androgen receptor) expressed from cDNA fragment (Homo sapiens, UniProt P10275)
T1 sequence (P10275 669-900 limits assumed): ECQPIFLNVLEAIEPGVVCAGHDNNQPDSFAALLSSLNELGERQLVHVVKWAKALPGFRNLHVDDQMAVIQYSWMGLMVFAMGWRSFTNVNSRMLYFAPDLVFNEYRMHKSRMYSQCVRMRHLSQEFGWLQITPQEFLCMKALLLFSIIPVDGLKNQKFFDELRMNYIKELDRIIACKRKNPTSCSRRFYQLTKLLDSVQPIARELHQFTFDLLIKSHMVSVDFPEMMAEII
Settings: unlabeled steroid at 10- and 100-fold excess over 5 nM [3H]dihydrotestosterone

steroid specificity (relative affinity): low affinity
SMILES: C[C@]12CCC(=O)C=C1CC[C@@H]1[C@@H]2[C@@H](O)C[C@@]2(C)[C@H]1CC[C@]2(O)C(=O)CO [cortisol]
